Results published in patent EP4603105A1, “PHARMACEUTICAL COMPOSITION CONTAINING CYCLIC COMPOUND HAVING SELECTIVE KRAS INHIBITORY EFFECT AGAINST HRAS AND NRAS” (CHUGAI SEIYAKU KABUSHIKI KAISHA, priority 2022, dated 2024).
*1 amine or outer side, *2 acyl side, *3 side chain or, on linkers, in order; H or OH if unused. Where a SMILES comes first, the peptide text is derived from it. Bridges are numbered along the chain shown (N, C = ends). [ ]: non-standard residue; d: D form. The star is where a group is joined. hPhe(3-Cl-4-CF3) = N[C@@H](CCc1ccc(C(F)(F)F)c(Cl)c1)C(=O)O; NPrPhe(4-CF3) = CCCN[C@@H](Cc1ccc(C(F)(F)F)cc1)C(=O)O; X37 = Cc1ccc(C[C@@H](C(=O)[*:2])N(CCC(C)C)[*:1])cc1; NMeGly(cPent) = CN[C@H](C(=O)O)C1CCCC1; NMeD = CN[C@@H](CC(=O)O)C(=O)O; NMeL = CN[C@@H](CC(C)C)C(=O)O; NEtAla = CCN[C@@H](C)C(=O)O; Morpholide = C1CN(*)CCO1; NMeA = CN[C@@H](C)C(=O)O; Ac5c = NC1(C(=O)O)CCCC1; Aze = O=C(O)[C@@H]1CCN1; Sar = CNCC(=O)O

Columns and labels:
[1] = target: GDP-bound NRAS wild-type protein (Homo sapiens, UniProt P01111); assay: Binding to NRAS by surface plasmon resonance (SPR), KD and KD ratio to KRAS
GDP-bound NRAS wild-type protein, sequence (P01111 whole entry): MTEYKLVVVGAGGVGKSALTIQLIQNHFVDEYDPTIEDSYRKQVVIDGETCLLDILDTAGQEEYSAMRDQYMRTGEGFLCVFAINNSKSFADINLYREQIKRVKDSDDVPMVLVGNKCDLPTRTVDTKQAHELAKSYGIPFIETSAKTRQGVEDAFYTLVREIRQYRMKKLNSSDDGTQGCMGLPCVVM
Outline: (§1)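 GDP-loaded biotinylated Avi-tag RAS proteins (E. coli-expressed) captured on a Biotin CAPture chip at ~100–300 RU; single-cycle kinetics at 30°C, 100 µL/min, 75 s injections of rising compound concentrations. HBS pH 7.4 running buffer with 1 mM DTT, 10 mM MgCl2, 10 µM GDP, 4% DMSO. KD from 1:1 binding fit.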

HRAS wild-type protein = HRAS wild-type protein (Homo sapiens, UniProt P01112); assay: Binding to HRAS by surface plasmon resonance (SPR), KD and KD ratio to KRAS
HRAS wild-type protein, sequence (P01112 whole entry): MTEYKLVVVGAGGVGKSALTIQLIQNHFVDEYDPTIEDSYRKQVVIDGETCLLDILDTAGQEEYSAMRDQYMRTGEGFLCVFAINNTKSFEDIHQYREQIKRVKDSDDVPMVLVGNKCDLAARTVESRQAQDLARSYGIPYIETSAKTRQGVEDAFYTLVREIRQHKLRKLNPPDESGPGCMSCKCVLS
Outline: as §1

[2] = test system: human lung cancer strain NCI-H441; type: cell-based
Outline: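 Readout: […] after the ATP-based reagent. Compound: serial dilutions in dimethyl sulfoxide.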

[3] = ratio of KD for GDP-bound NRAS wild-type protein to KD for KRAS
[4] = ratio of KD for HRAS wild-type protein to KD for KRAS
[5] = ratio of KD value for GDP-bound NRAS wild-type protein to KD value for KRAS (SPR)
[6] = ratio of KD value for HRAS wild-type protein to KD value for KRAS (SPR)

Compound: CCCN1C(=O)[C@@H]2CCN2C(=O)[C@H](C)N(CC)C(=O)[C@H]([C@@H](C)CC)NC(=O)[C@H](CC(C)C)N(C)C(=O)C[C@@H](C(=O)N2CCOCC2)N(C)C(=O)[C@H](C2CCCC2)N(C)C(=O)C2(CCCC2)NC(=O)[C@@H]2CCCN2C(=O)[C@H](CCc2ccc(C(F)(F)F)c(Cl)c2)NC(=O)CN(C)C(=O)[C@@H]1Cc1ccc(C(F)(F)F)cc1 [PP0152] ([NMeL]I[NEtAla][Aze][NPrPhe(4-CF3)][Sar][hPhe(3-Cl-4-CF3)]P[Ac5c][NMeGly(cPent)][NMeD]-Morpholide; lactam N-11)
- NRAS /KRAS [1, 3]: C (A compound having a KD ratio of 0.1 or more and less than 3 is denoted as C)
- HRAS /KRAS (HRAS wild-type protein; [4]): B (a compound having 3 or more and less than 10 is denoted as B)
- IC50 [2]: 37.9 nM

Compound: CC[C@H](C)[C@@H]1NC(=O)[C@H](CC(C)C)N(C)C(=O)C[C@@H](C(=O)N2CCOCC2)N(C)C(=O)[C@H](C2CCCC2)N(C)C(=O)C2(CCCC2)NC(=O)[C@@H]2CCCN2C(=O)[C@H](CCc2ccc(C(F)(F)F)c(Cl)c2)NC(=O)CN(C)C(=O)[C@H](Cc2ccc(C)cc2)N(CCC(C)C)C(=O)[C@@H]2CCN2C(=O)[C@H](C)N(C)C1=O [PP0086] ([NMeL]I[NMeA][Aze][X37][Sar][hPhe(3-Cl-4-CF3)]P[Ac5c][NMeGly(cPent)][NMeD]-Morpholide; lactam N-11)
- NRAS /KRAS [1, 3]: C (A compound having a KD ratio of 0.1 or more and less than 3 is denoted as C)
- HRAS /KRAS (HRAS wild-type protein; [4]): B (a compound having 3 or more and less than 10 is denoted as B)
- IC50 [2]: 6.4 nM

Compound: CC[C@H](C)[C@@H]1NC(=O)[C@H](CC(F)(F)F)N(C)C(=O)C[C@@H](C(=O)N(C)C)N(C)C(=O)[C@H](C2CCCC2)N(C)C(=O)C2(CC(C)(C)C2)NC(=O)[C@@H]2CC(F)(F)CN2C(=O)[C@H](CCc2cc(F)c(C(F)(F)F)c(F)c2)NC(=O)CN(C)C(=O)[C@H](Cc2ccc(C(F)(F)F)cc2)N2CC/C=C\C[C@@H](C2=O)N(C)C(=O)CN(C)C1=O [PP1710]
- NRAS /KRAS [1, 5]: A (a compound having 10 or more and less than 20 is denoted as A)
- HRAS /KRAS (HRAS wild-type protein; [6]): B (a compound having 3 or more and less than 10 is denoted as B)
- IC50 [2]: 4.1 nM

Compound: CCC[C@H]1C(=O)N[C@@H]([C@@H](C)CC)C(=O)N(C)CC(=O)N(C)[C@H]2C/C=C\CCN(C2=O)[C@@H](Cc2ccc(C)cc2)C(=O)N(C)CC(=O)N[C@@H](CCc2ccc(C(F)(F)F)c(OC)c2)C(=O)N2CC3(CC3)C[C@H]2C(=O)NC2(CC(C)(C)C2)C(=O)N(C)[C@@H](CC(F)(F)F)C(=O)N(C)[C@H](C(=O)N(C)C)CC(=O)N1C [PP3012]
- NRAS /KRAS [1, 3]: A (a compound having 10 or more and less than 20 is denoted as A)
- HRAS /KRAS (HRAS wild-type protein; [4]): A (a compound having 10 or more and less than 20 is denoted as A)
- IC50 [2]: 74.8 nM

Compound: CCO[C@@H]1C[C@H]2C(=O)NC3(CCCC3)C(=O)N(C)[C@@H](C3CCCC3)C(=O)N(C)[C@H](C(=O)N(C)C)CC(=O)N(C)[C@@H](CC(C)C)C(=O)N[C@@H]([C@@H](C)CC)C(=O)N(C)CC(=O)N(C)[C@H]3C/C=C\CCN(C3=O)[C@@H](Cc3ccc(C)cc3)C(=O)N(C)CC(=O)N[C@@H](CCc3ccc(C(F)(F)F)c(OC)c3)C(=O)N2C1 [PP2197]
- NRAS /KRAS ([1]; ratio of the KD value with respect to GDP-bound NRAS wild-type protein to the KD value with respect to KRAS): A (a compound having 10 or more and less than 20 is denoted as A)
- HRAS /KRAS (HRAS wild-type protein; ratio of the KD value with respect to HRAS wild-type protein to the KD value with respect to KRAS): B (a compound having 3 or more and less than 10 is denoted as B)
- IC50 [2]: 4.6 nM

Compound: CCO[C@@H]1C[C@H]2C(=O)NC3(CC(C)(C)C3)C(=O)N(C)[C@@H](C3CCCC3)C(=O)N(C)[C@H](CC)CC(=O)N(C)[C@@H](CC)C(=O)N[C@@H]([C@@H](C)CC)C(=O)N(C)CC(=O)N(C)[C@H]3C/C=C\CCN(C3=O)[C@@H](Cc3ccc(C(F)(F)F)cc3)C(=O)N(C)CC(=O)N[C@@H](CCc3cc(F)c(C(F)(F)F)c(F)c3)C(=O)N2C1 [PP1623]
- NRAS /KRAS [1, 5]: A (a compound having 10 or more and less than 20 is denoted as A)
- HRAS /KRAS (HRAS wild-type protein; [6]): A (a compound having 10 or more and less than 20 is denoted as A)
- IC50 [2]: 4.5 nM

Compound: CCO[C@@H]1C[C@H]2C(=O)N(C)C3(CCC3)C(=O)N(C)[C@@H](C3CCCC3)C(=O)N(C)[C@H](C(=O)N(C)C)CC(=O)N(C)[C@@H](CC(C)C)C(=O)N[C@@H]([C@@H](C)CC)C(=O)N(C)CC(=O)N(C)[C@H]3C/C=C\CCN(C3=O)[C@@H](Cc3ccc(C)cc3)C(=O)N(C)CC(=O)N[C@@H](CCc3cc(F)c(C(F)(F)F)c(F)c3)C(=O)N2C1 [PP1790]
- NRAS /KRAS [1, 5]: A (a compound having 10 or more and less than 20 is denoted as A)
- HRAS /KRAS (HRAS wild-type protein; [6]): B (a compound having 3 or more and less than 10 is denoted as B)
- IC50 [2]: 1.7 nM

Compound: CC[C@H](C)[C@@H]1NC(=O)[C@@H]2CCCCCCc3ccc(cc3)C[C@@H](C(=O)N(C)CC(=O)N[C@@H](CCc3ccc(C(F)(F)F)c(OC)c3)C(=O)N3C[C@H](OC4CCC4)C[C@H]3C(=O)NC3(CC(C)(C)C3)C(=O)N(C)[C@@H](C3CCCC3)C(=O)N(C)[C@H](C(=O)N(C)C)CC(=O)N2C)N2CC/C=C\C[C@@H](C2=O)N(C)C(=O)CN(C)C1=O [PP3068]
- NRAS /KRAS [1, 3]: A (a compound having 10 or more and less than 20 is denoted as A)
- HRAS /KRAS (HRAS wild-type protein; [4]): B (a compound having 3 or more and less than 10 is denoted as B)
- IC50 [2]: 4.5 nM
